Holding throughout (assay): DTP human tumour cell line panel, 48 h
Experiment [1] deals with COLO 205 colon.
Experiment [2] has as its system DMS 273 small cell lung.
Experiment [3] has as its system HCT-116 colon.
For experiment [4], the system named is HOP-92 NSCLC.
For experiment [5], the system named is NCI-H522 lung.
Experiment [6] has as its system OVCAR-8 ovarian.
For experiment [7], the system named is SNB-78 CNS.
For experiment [8], the system named is SR leukemia.
In experiment [9] the test system is BT-549 breast.
Experiment [10] has as its system PC-3 prostate.

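How tested: cells in 96-well plates exposed to compound for 48 hours at five concentrations. GI50 = concentration required for 50% inhibition of growth. TGI denotes the concentration required for complete inhibition of growth.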 Where only a bound is given, the exact number is not on record here.

What is called TGI is the concentration at which net growth stops. As usually defined, the GI50 is the concentration giving 50% growth inhibition.

Consider `O=C(Nc1ccccc1)n1cc(-c2ccccn2)c(N2CCOCC2)n1`, for which the TGI in experiment [1] is greater than 100 µM; in experiment [2] it was 42.1 µM; in experiment [3], greater than 100 µM; in experiment [4] it was greater than 100 µM; in [5], 6.58 µM; in [6], greater than 100 µM. In [7], this compound came in with a TGI greater than 100 µM.

Consider `Cc1ccccc1C=NC12CC3CC(CC(C3)C1)C2`, for which the TGI in [1], in [2], in experiment [3], in [4], in experiment [5] and in experiment [6] was greater than 100 µM in each case. This compound also registered a total growth inhibition concentration (TGI) in [7] greater than 100 µM.

As for `Cc1cc2nc3c(=O)[nH]c(=O)nc-3n(CC(O)C(O)C(O)CO)c2cc1N` (configuration not stated), the TGI in experiment [1], in [2], in experiment [3], in experiment [4], in [6] and in [7] was greater than 100 µM in each case.

Turning to `O=C(O)CCC(=O)Oc1ccc(O)c2c1CCCC2=O`, the total growth inhibition concentration (TGI) in experiment [1], in experiment [2], in experiment [3], in [5], in [6] and in experiment [7] was greater than 100 µM each time. Besides, the concentration for total growth inhibition (TGI) in experiment [8] was greater than 100 µM.

As for `N#CC(C#N)=Cc1ccc(C(O)P(=O)(O)O)cc1` (configuration not stated), the concentration for total growth inhibition (TGI) in experiment [1], in experiment [2], in experiment [3], in [4], in experiment [5] and in experiment [6] was greater than 100 µM each time. Also, in experiment [7], the concentration for total growth inhibition (TGI) is greater than 100 µM.

`O=C[C@]12CC=C3OC4OC5(CCCCC5)OC4[C@H]3[C@H]1C(=O)C=CC2=O` (some centres not stated): the concentration for total growth inhibition (TGI) is greater than 100 µM in experiment [2]; 38.4 µM in experiment [3]; 22.1 µM in experiment [5]; 34.6 µM in [6]; 29.4 µM in experiment [7]; 7.93 µM in [8].

Consider `O=C(O)c1ccc(NCc2nc3ccccc3[nH]2)cc1`, for which the GI50 in [9], in experiment [1], in experiment [3], in experiment [4], in [5] and in experiment [6] was greater than 100 µM throughout. Also, the GI50 in [10] and in experiment [8] was greater than 100 µM each time. In addition, the TGI in experiment [9], in experiment [1], in experiment [3], in experiment [4], in experiment [5] and in experiment [6] was greater than 100 µM each time. Moreover, the TGI in experiment [10] and in experiment [8] was greater than 100 µM in each case.

For the compound `CCC1=C[C@@H]2CN(C1)Cc1c([nH]c3ccccc13)[C@@](C(=O)OC)(c1cc3c(cc1OC)N(C)[C@H]1[C@@](O)(C(=O)OC)[C@H](OC(C)=O)[C@]4(CC)C=CCN5CC[C@]31[C@@H]54)C2`, the GI50 was less than 0.0107 µM in experiment [9]; less than 0.01 µM in experiment [1]; less than 0.01 µM in experiment [3]; less than 0.0471 µM in experiment [4]; less than 0.0227 µM in [5]; less than 0.0213 µM in experiment [6]. Further, the GI50 in experiment [10] and in experiment [8] was less than 0.01 µM in each case. Also, the TGI is 8.82 µM in [9]; 0.0775 µM in [1]; greater than 40.4 µM in [3]; 0.554 µM in [4]; greater than 31.8 µM in experiment [5]; 25.6 µM in experiment [6]. Besides, the TGI came to 21.8 µM in experiment [10] and 1.95 µM in experiment [8].

In the case of `CCOC(=O)Nc1ccc2nc(N3CCCCCC3)sc2c1`, the GI50 in [9] was 12 µM; in [1] it was 1.35 µM; in experiment [3], 0.573 µM; in [4] it was 6.15 µM; in experiment [5], 1.83 µM; in [6] it was 4.51 µM. Moreover, the GI50 is 3.49 µM in [10] and 0.405 µM in experiment [8]. Besides, the TGI in experiment [9] was 49.6 µM; in [1], greater than 59 µM; in experiment [3] it was greater than 77.9 µM; in experiment [4], 58.9 µM; in [5], 13.2 µM; in [6], greater than 63.4 µM. Besides, the TGI in experiment [10] and in experiment [8] was greater than 100 µM in each case.

With `C[C@]12CCCN1CC1=NNC(=O)c3cc(F)cc4[nH]c2c1c34`, the GI50 in experiment [9] was 23.2 µM; in experiment [1], 14.6 µM; in experiment [3] it was 14.2 µM; in experiment [4] it was 2.71 µM; in experiment [5] it was 21.9 µM; in experiment [6], 19.5 µM. Also, the GI50 in experiment [10] was 20.7 µM; in [8] it was 3.57 µM. For the same compound, the total growth inhibition concentration (TGI) was 99.6 µM in [9]; 40.6 µM in [1]; greater than 100 µM in experiment [3]; 20.7 µM in experiment [4]; 63.6 µM in experiment [5]; greater than 100 µM in [6]. The TGI in experiment [10] and in [8] was greater than 100 µM throughout.

Consider `CS(=O)(=O)c1ccc2c(c1)C(=O)c1c-2n(CCCBr)c(=O)c2cc([N+](=O)[O-])ccc12`, for which the GI50 in experiment [9] is 26.7 µM; in [1], greater than 100 µM; in [3] it was 7.44 µM; in experiment [4] it was 10.9 µM; in experiment [5] it was 4.87 µM; in experiment [6], 29.3 µM. In addition, the GI50 in experiment [10] is 9.94 µM; in experiment [8], 1.06 µM. Further, the TGI is greater than 100 µM in experiment [9]; greater than 100 µM in [1]; greater than 100 µM in experiment [3]; 40 µM in experiment [4]; greater than 100 µM in experiment [5]; greater than 100 µM in experiment [6]. Besides, the TGI in [10] and in [8] was greater than 100 µM in each case.

On to `Cn1nc(-c2ccccc2)c2c(/C=C/c3ccc(Cl)cc3)onc2c1=O`, for which the total growth inhibition concentration (TGI) was greater than 100 µM in [1]; greater than 100 µM in experiment [2]; 28.4 µM in experiment [3]; 57.1 µM in [4]; 45.5 µM in [5]; 84.3 µM in experiment [6].

As to `Nc1c(C(=O)c2ccc(C#CCN3CCOCC3)cc2)cnn1-c1ccc(F)cc1`, the GI50 in experiment [9], in experiment [1], in experiment [3], in [4], in experiment [5] and in experiment [6] was greater than 25 µM throughout. The GI50 in experiment [10] and in [8] was greater than 25 µM in each case. Besides, the TGI in [9], in experiment [1], in [3], in experiment [4], in experiment [5] and in experiment [6] was greater than 25 µM each time. Besides, the TGI in experiment [10] and in [8] was greater than 25 µM each time.
